Laboratory results published in ChEMBL document CHEMBL3832085.

Assay: clinical
Settings: human, in vivo, topical or ocular, 46.1 mg

AUC (AUC(0 to inf)): 61.3 ng·h/mL
Cmax (Cmax): 27.2 ng/mL
Tmax (Tmax): 45 min
Structure (SMILES): CCN(CC)CC(=O)Nc1c(C)cccc1C [LIDOCAINE]
